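Results reflect a 48-hour exposure of cells in 96-well plates to compound at five concentrations. At the GI50, growth is halved. TGI: concentration producing complete growth inhibition.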
Key:
Assay in all cases: DTP human tumour cell line panel, 48 h
786-0 renal = system: 786-0 renal
A549 NSCLC = system: A549 NSCLC
ACHN renal = system: ACHN renal
BT-549 breast = system: BT-549 breast
CAKI-1 renal = system: CAKI-1 renal
COLO 205 colon = system: COLO 205 colon
DU-145 prostate = system: DU-145 prostate
EKVX NSCLC = system: EKVX NSCLC
HCC-2998 colon = system: HCC-2998 colon
HCT-116 colon = system: HCT-116 colon
HCT-15 colon = system: HCT-15 colon
HOP-62 NSCLC = system: HOP-62 NSCLC
HOP-92 NSCLC = system: HOP-92 NSCLC
HT29 colon = system: HT29 colon
IGROV1 ovarian = system: IGROV1 ovarian
K-562 leukemia = system: K-562 leukemia
KM12 colon = system: KM12 colon
LOX IMVI melanoma = system: LOX IMVI melanoma
M14 melanoma = system: M14 melanoma
MALME-3M melanoma = system: MALME-3M melanoma
MCF7 breast = system: MCF7 breast
MDA-MB-231 breast = system: MDA-MB-231 breast
MDA-MB-435 = system: MDA-MB-435
MOLT-4 leukemia = system: MOLT-4 leukemia
NCI-H226 lung = system: NCI-H226 lung
NCI-H23 lung = system: NCI-H23 lung
NCI-H460 lung = system: NCI-H460 lung
NCI/ADR-RES ovarian = system: NCI/ADR-RES ovarian
OVCAR-3 ovarian = system: OVCAR-3 ovarian
OVCAR-4 ovarian = system: OVCAR-4 ovarian
OVCAR-5 ovarian = system: OVCAR-5 ovarian
OVCAR-8 ovarian = system: OVCAR-8 ovarian
PC-3 prostate = system: PC-3 prostate
RPMI-8226 leukemia = system: RPMI-8226 leukemia
SF-268 CNS = system: SF-268 CNS
SF-539 CNS = system: SF-539 CNS
SK-MEL-2 melanoma = system: SK-MEL-2 melanoma
SK-MEL-28 melanoma = system: SK-MEL-28 melanoma
SK-MEL-5 melanoma = system: SK-MEL-5 melanoma
SNB-19 CNS = system: SNB-19 CNS
SR leukemia = system: SR leukemia
SW-620 colon = system: SW-620 colon
T-47D breast = system: T-47D breast
TK-10 renal = system: TK-10 renal
U251 CNS = system: U251 CNS
UACC-257 melanoma = system: UACC-257 melanoma
UACC-62 melanoma = system: UACC-62 melanoma
UO-31 renal = system: UO-31 renal
A498 renal = system: A498 renal
CCRF-CEM leukemia = system: CCRF-CEM leukemia
HL-60(TB) leukemia = system: HL-60(TB) leukemia
HS 578T breast = system: HS 578T breast
NCI-H522 lung = system: NCI-H522 lung
SK-OV-3 ovarian = system: SK-OV-3 ovarian
SN12C renal = system: SN12C renal
SNB-75 CNS = system: SNB-75 CNS

What does the source list for `N#Cc1nnc2ccccc2c1N`?
TGI (786-0 renal): > 100 µM; TGI (A549 NSCLC): > 100 µM; TGI (ACHN renal): > 100 µM; TGI (BT-549 breast): > 100 µM; TGI (CAKI-1 renal): > 100 µM; TGI (COLO 205 colon): > 100 µM; TGI (DU-145 prostate): > 100 µM; TGI (EKVX NSCLC): > 100 µM; TGI (HCC-2998 colon): > 100 µM; TGI (HCT-116 colon): > 100 µM; TGI (HCT-15 colon): > 100 µM; TGI (HOP-62 NSCLC): > 100 µM; TGI (HOP-92 NSCLC): > 100 µM; TGI (HT29 colon): > 100 µM; TGI (IGROV1 ovarian): > 100 µM; TGI (K-562 leukemia): > 100 µM; TGI (KM12 colon): > 100 µM; TGI (LOX IMVI melanoma): > 100 µM; TGI (M14 melanoma): > 100 µM; TGI (MALME-3M melanoma): > 100 µM; TGI (MCF7 breast): > 100 µM; TGI (MDA-MB-231 breast): > 100 µM; TGI (MDA-MB-435): > 100 µM; TGI (MOLT-4 leukemia): > 100 µM; TGI (NCI-H226 lung): > 100 µM; TGI (NCI-H23 lung): > 100 µM; TGI (NCI-H460 lung): > 100 µM; TGI (NCI/ADR-RES ovarian): > 100 µM; TGI (OVCAR-3 ovarian): 26.4 µM; TGI (OVCAR-4 ovarian): > 100 µM; TGI (OVCAR-5 ovarian): > 100 µM; TGI (OVCAR-8 ovarian): > 100 µM; TGI (PC-3 prostate): > 100 µM; TGI (RPMI-8226 leukemia): > 100 µM; TGI (SF-268 CNS): > 100 µM; TGI (SF-539 CNS): > 100 µM; TGI (SK-MEL-2 melanoma): > 100 µM; TGI (SK-MEL-28 melanoma): > 100 µM; TGI (SK-MEL-5 melanoma): > 100 µM; TGI (SNB-19 CNS): > 100 µM; TGI (SR leukemia): > 100 µM; TGI (SW-620 colon): > 100 µM; TGI (T-47D breast): > 100 µM; TGI (TK-10 renal): > 100 µM; TGI (U251 CNS): > 100 µM; TGI (UACC-257 melanoma): > 100 µM; TGI (UACC-62 melanoma): > 100 µM; TGI (UO-31 renal): > 100 µM

What does the source list for `CC(C)OC(=O)Nc1ccc(-c2nc(-c3cccc(OCCN4CCOCC4)c3)c(-c3ccnc(Br)c3)[nH]2)cc1`?
GI50 (786-0 renal): 1.24 µM; TGI (786-0 renal): 3.54 µM; GI50 (A498 renal): 1.23 µM; TGI (A498 renal): 4.12 µM; GI50 (A549 NSCLC): 3.49 µM; TGI (A549 NSCLC): > 100 µM; GI50 (ACHN renal): 3.22 µM; TGI (ACHN renal): > 100 µM; GI50 (BT-549 breast): 2.86 µM; TGI (BT-549 breast): > 100 µM; GI50 (CAKI-1 renal): 2.85 µM; TGI (CAKI-1 renal): > 100 µM; GI50 (CCRF-CEM leukemia): 2.46 µM; TGI (CCRF-CEM leukemia): > 100 µM; GI50 (DU-145 prostate): 4.8 µM; TGI (DU-145 prostate): > 100 µM; GI50 (EKVX NSCLC): 2.39 µM; TGI (EKVX NSCLC): 7.55 µM; GI50 (HCC-2998 colon): 3.1 µM; TGI (HCC-2998 colon): > 100 µM; GI50 (HCT-116 colon): 2.96 µM; TGI (HCT-116 colon): > 100 µM; GI50 (HCT-15 colon): 1.3 µM; TGI (HCT-15 colon): 4.26 µM; GI50 (HL-60(TB) leukemia): 1.87 µM; TGI (HL-60(TB) leukemia): 4.59 µM; GI50 (HOP-62 NSCLC): 3.04 µM; TGI (HOP-62 NSCLC): > 100 µM; GI50 (HOP-92 NSCLC): 2.45 µM; TGI (HOP-92 NSCLC): 7.99 µM; GI50 (HS 578T breast): 0.461 µM; TGI (HS 578T breast): 2.76 µM; GI50 (HT29 colon): 2.69 µM; TGI (HT29 colon): > 100 µM; GI50 (IGROV1 ovarian): 4.39 µM; TGI (IGROV1 ovarian): > 100 µM; GI50 (K-562 leukemia): 1.58 µM; TGI (K-562 leukemia): > 100 µM; GI50 (KM12 colon): 3.12 µM; TGI (KM12 colon): > 100 µM; GI50 (LOX IMVI melanoma): 1.56 µM; TGI (LOX IMVI melanoma): 3.39 µM; GI50 (M14 melanoma): 2.78 µM; TGI (M14 melanoma): 11.7 µM; GI50 (MALME-3M melanoma): 1.56 µM; TGI (MALME-3M melanoma): 3.39 µM; GI50 (MDA-MB-231 breast): 3.54 µM; TGI (MDA-MB-231 breast): 56.7 µM; GI50 (MOLT-4 leukemia): 2.2 µM; TGI (MOLT-4 leukemia): > 100 µM; GI50 (NCI-H226 lung): 3.75 µM; TGI (NCI-H226 lung): > 100 µM; GI50 (NCI-H23 lung): 1.99 µM; TGI (NCI-H23 lung): 4.72 µM; GI50 (NCI-H460 lung): 3.63 µM; TGI (NCI-H460 lung): > 100 µM; GI50 (NCI-H522 lung): 3.86 µM; TGI (NCI-H522 lung): > 100 µM; GI50 (NCI/ADR-RES ovarian): 4.3 µM; TGI (NCI/ADR-RES ovarian): > 100 µM; GI50 (OVCAR-3 ovarian): 4.91 µM; TGI (OVCAR-3 ovarian): > 100 µM; GI50 (OVCAR-4 ovarian): 4.79 µM; TGI (OVCAR-4 ovarian): > 100 µM; GI50 (OVCAR-5 ovarian): 4.97 µM; TGI (OVCAR-5 ovarian): > 100 µM; GI50 (OVCAR-8 ovarian): 4.32 µM; TGI (OVCAR-8 ovarian): > 100 µM; GI50 (PC-3 prostate): 2.96 µM; TGI (PC-3 prostate): > 100 µM; GI50 (RPMI-8226 leukemia): 0.549 µM; TGI (RPMI-8226 leukemia): 2.91 µM; GI50 (SF-268 CNS): 4.05 µM; TGI (SF-268 CNS): > 100 µM; GI50 (SF-539 CNS): 1.52 µM; TGI (SF-539 CNS): 5.46 µM; GI50 (SK-MEL-2 melanoma): 2.87 µM; TGI (SK-MEL-2 melanoma): 9.13 µM; GI50 (SK-MEL-28 melanoma): 1.67 µM; TGI (SK-MEL-28 melanoma): 4.16 µM; GI50 (SK-MEL-5 melanoma): 1.79 µM; TGI (SK-MEL-5 melanoma): 3.27 µM; GI50 (SK-OV-3 ovarian): 2.49 µM; TGI (SK-OV-3 ovarian): 5.8 µM; GI50 (SN12C renal): 4.29 µM; TGI (SN12C renal): > 100 µM; GI50 (SNB-19 CNS): 3.22 µM; TGI (SNB-19 CNS): > 100 µM; GI50 (SNB-75 CNS): 0.611 µM; TGI (SNB-75 CNS): 5.17 µM; GI50 (SR leukemia): 2.4 µM; TGI (SR leukemia): > 100 µM; GI50 (SW-620 colon): 3.12 µM; TGI (SW-620 colon): > 100 µM; GI50 (T-47D breast): 2.61 µM; TGI (T-47D breast): > 100 µM; GI50 (TK-10 renal): 6.15 µM; TGI (TK-10 renal): > 100 µM; GI50 (U251 CNS): 2.01 µM; TGI (U251 CNS): > 100 µM; GI50 (UACC-257 melanoma): 2.72 µM; TGI (UACC-257 melanoma): 8.82 µM; GI50 (UACC-62 melanoma): 2.31 µM; TGI (UACC-62 melanoma): 6.28 µM; GI50 (UO-31 renal): 2.84 µM; TGI (UO-31 renal): > 100 µM

Source: PubChem BioAssay (NCI)
